Our source for the residual kinase activity values is article PMC11167047 (Cell Death Discovery, 2024).

What all share (experiment): kinome screen (33PanQinase)
Assay type in all cases: biochemical

One test deals with T1, AKT3 (Homo sapiens, UniProt Q9Y243).
T1 construct: purchased Reaction Biology Europe GmbH (formerly ProQinase)
The procedure:
(§1) The Kinome Screening was performed by Reaction Biology Europe GmbH (http://reactionbiology.com; Freiburg i. Br., Germany).

A further test concerns the target T2, NEK1 (Homo sapiens, UniProt Q96PY6).
T2 construct: purchased Reaction Biology Europe GmbH (formerly ProQinase)
T2 sequence (Q96PY6 1-1258): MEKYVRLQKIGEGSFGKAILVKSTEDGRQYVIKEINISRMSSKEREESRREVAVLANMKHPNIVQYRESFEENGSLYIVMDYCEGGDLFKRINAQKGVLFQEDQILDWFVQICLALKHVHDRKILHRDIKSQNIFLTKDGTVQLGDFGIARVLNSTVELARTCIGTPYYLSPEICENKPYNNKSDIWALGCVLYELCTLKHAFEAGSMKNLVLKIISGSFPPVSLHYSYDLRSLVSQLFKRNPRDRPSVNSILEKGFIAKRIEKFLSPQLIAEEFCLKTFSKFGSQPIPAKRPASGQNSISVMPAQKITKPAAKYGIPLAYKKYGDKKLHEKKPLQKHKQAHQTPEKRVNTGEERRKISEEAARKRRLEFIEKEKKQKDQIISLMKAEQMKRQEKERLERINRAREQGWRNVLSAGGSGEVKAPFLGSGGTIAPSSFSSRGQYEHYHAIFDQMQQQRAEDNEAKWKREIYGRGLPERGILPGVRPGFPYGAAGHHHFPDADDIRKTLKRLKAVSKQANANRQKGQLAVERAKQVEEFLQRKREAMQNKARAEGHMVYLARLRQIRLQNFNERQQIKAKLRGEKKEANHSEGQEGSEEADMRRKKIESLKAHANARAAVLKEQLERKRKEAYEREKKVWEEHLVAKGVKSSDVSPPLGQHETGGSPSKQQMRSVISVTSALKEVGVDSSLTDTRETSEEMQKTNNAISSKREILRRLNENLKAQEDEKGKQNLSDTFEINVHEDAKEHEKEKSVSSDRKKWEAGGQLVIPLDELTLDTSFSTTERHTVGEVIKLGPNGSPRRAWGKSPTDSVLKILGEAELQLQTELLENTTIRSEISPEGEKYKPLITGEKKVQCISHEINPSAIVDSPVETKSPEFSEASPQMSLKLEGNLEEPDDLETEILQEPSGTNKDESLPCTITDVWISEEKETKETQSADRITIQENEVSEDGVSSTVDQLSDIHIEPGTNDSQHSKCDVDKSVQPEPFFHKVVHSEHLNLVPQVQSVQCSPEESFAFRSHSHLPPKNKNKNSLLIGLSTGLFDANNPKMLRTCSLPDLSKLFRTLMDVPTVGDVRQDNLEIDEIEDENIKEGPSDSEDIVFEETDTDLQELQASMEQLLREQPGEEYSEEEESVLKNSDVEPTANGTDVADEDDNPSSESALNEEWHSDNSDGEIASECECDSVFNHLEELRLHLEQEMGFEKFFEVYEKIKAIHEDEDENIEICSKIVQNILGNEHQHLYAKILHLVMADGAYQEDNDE
The procedure:
as §1

Another test addresses T3, CDC42BPB (Homo sapiens, UniProt Q9Y5S2).
T3 construct: purchased Reaction Biology Europe GmbH (formerly ProQinase)
The procedure: as §1

For another test, the target named is T4, DYRK3 (Homo sapiens, UniProt O43781).
T4 construct: purchased Reaction Biology Europe GmbH (formerly ProQinase)
T4 sequence (O43781 1-588): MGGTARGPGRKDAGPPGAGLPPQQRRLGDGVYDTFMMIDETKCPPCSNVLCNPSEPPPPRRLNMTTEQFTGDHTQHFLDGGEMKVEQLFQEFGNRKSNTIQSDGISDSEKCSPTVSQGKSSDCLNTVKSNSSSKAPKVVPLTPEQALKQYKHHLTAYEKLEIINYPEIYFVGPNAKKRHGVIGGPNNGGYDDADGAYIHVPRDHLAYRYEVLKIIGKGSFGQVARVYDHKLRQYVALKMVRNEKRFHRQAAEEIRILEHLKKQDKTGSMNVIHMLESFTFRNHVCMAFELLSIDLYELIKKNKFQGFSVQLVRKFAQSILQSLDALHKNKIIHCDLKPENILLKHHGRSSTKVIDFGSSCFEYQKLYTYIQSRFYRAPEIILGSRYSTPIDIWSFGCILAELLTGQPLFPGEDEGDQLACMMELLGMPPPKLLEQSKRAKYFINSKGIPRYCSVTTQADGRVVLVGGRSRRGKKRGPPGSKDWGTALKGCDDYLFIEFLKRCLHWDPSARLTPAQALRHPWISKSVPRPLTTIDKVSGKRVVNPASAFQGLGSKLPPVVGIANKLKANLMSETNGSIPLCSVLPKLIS
The procedure:
as §1

A further test concerns the target T5, VRK1 (Homo sapiens, UniProt Q99986).
T5 construct: purchased Reaction Biology Europe GmbH (formerly ProQinase)
T5 sequence (Q99986 1-396): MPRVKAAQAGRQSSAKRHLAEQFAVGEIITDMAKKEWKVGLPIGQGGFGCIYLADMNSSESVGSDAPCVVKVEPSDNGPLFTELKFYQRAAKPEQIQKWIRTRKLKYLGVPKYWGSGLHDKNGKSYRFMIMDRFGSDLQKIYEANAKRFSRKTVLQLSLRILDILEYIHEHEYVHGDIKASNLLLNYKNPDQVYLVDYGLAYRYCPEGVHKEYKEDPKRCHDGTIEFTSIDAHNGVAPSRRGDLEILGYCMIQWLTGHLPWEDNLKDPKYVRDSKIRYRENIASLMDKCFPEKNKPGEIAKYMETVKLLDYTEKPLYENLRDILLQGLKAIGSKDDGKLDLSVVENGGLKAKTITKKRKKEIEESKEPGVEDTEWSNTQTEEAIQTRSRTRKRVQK
On the procedure:
as §1

The target of the next test is T6, PYK2 (Homo sapiens, UniProt Q14289).
T6 construct: purchased Reaction Biology Europe GmbH (formerly ProQinase)
The procedure: as §1

In the next test the target is T7, MEK2 (Homo sapiens, UniProt P36507).
T7 construct: purchased Reaction Biology Europe GmbH (formerly ProQinase)
On the procedure:
as §1

T1 sequence (Q9Y243 whole entry): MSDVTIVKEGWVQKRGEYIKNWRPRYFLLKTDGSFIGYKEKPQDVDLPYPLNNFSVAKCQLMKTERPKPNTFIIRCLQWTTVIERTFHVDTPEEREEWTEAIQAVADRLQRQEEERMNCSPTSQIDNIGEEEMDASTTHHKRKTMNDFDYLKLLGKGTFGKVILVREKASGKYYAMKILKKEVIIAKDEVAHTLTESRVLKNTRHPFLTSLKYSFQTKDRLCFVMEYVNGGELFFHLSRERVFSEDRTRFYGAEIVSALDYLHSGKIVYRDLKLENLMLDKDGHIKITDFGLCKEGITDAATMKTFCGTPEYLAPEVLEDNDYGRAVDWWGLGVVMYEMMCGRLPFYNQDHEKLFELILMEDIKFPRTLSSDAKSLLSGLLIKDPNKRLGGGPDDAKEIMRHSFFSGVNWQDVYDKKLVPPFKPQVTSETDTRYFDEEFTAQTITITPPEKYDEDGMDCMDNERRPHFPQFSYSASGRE
T3 sequence (Q9Y5S2 whole entry): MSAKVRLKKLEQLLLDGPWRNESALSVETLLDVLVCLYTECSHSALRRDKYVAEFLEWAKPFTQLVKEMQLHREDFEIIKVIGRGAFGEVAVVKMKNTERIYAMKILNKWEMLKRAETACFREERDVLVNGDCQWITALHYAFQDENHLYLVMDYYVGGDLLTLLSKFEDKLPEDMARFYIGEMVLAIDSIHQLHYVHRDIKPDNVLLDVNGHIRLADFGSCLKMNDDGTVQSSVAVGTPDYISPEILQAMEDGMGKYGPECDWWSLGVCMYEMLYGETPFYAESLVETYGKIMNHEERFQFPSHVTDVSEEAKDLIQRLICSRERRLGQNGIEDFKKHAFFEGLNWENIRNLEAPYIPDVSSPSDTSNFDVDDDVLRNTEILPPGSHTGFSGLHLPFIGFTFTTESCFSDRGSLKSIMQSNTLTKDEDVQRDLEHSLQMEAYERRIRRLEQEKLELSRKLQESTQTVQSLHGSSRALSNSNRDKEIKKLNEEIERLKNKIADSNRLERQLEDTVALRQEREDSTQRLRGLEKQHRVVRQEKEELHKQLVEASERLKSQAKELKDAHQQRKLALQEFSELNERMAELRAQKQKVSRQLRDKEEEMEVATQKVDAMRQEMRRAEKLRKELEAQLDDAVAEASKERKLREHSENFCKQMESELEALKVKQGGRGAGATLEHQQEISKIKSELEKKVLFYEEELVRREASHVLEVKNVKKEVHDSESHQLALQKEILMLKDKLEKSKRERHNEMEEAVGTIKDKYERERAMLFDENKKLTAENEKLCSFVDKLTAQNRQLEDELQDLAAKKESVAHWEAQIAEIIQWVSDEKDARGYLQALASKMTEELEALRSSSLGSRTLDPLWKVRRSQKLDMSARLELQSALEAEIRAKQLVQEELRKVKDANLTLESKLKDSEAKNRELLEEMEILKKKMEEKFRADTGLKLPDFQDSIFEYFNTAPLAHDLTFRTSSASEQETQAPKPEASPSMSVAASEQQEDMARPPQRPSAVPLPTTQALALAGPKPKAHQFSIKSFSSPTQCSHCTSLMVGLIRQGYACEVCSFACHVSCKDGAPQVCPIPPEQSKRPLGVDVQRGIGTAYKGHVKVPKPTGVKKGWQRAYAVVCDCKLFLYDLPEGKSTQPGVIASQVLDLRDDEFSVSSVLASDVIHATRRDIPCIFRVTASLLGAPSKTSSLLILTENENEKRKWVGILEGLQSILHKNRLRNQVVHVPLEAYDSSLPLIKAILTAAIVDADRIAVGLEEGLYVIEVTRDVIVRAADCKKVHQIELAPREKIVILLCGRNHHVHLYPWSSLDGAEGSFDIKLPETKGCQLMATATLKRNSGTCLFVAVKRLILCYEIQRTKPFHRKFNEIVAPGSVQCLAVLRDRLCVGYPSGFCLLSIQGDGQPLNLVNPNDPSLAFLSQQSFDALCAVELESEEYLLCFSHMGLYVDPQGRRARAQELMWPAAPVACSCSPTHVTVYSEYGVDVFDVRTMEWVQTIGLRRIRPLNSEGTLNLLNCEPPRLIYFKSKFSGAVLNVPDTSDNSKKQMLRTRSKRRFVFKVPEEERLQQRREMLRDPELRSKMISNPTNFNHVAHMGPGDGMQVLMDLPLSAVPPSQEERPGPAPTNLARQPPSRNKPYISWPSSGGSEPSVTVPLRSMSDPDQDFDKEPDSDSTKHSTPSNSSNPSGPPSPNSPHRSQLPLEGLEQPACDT
T7 sequence (P36507 whole entry): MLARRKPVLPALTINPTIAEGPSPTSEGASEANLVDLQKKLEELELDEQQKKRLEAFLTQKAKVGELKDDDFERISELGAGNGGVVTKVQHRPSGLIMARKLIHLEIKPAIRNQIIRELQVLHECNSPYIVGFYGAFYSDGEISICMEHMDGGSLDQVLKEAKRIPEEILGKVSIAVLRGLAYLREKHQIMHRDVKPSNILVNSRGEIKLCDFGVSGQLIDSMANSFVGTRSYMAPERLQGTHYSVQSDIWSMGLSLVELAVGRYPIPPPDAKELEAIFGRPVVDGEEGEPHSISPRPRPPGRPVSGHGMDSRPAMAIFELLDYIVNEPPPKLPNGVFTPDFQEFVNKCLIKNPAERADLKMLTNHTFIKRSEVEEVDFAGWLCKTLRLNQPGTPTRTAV
T6 sequence (Q14289 whole entry): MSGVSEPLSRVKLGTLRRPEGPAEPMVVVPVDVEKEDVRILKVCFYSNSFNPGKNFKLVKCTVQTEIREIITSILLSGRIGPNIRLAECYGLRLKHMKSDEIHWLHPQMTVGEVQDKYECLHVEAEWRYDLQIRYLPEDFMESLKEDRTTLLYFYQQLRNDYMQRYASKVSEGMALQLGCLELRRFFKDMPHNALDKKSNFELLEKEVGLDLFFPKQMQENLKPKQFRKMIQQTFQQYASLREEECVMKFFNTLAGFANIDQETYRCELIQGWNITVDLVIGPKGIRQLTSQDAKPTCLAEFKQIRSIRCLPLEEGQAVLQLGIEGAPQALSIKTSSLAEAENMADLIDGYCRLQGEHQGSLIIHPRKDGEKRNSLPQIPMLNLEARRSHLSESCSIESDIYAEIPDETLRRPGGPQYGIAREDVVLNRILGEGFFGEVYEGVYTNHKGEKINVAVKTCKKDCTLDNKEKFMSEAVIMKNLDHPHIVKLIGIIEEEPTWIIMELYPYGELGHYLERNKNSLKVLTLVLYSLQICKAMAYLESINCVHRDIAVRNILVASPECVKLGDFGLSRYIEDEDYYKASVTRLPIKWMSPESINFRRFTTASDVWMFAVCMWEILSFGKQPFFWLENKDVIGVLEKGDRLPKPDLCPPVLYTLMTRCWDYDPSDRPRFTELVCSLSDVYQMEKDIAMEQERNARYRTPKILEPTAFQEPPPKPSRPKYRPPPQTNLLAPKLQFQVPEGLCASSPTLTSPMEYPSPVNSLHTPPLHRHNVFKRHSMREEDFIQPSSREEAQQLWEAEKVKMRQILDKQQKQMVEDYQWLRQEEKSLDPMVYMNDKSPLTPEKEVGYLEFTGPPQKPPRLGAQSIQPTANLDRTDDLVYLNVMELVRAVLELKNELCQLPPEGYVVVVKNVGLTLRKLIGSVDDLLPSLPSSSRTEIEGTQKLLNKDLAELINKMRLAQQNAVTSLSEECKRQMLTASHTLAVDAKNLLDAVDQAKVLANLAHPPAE

`c1ccc(CNc2cc(-c3c[nH]c4ncccc34)ccn2)cc1` [meriolin 36]: the residual kinase activity is on record as 93 % of control on AKT3 (0.3 µM); 42 % of control on AKT3 (3 µM); 84 % of control at NEK1 (0.3 µM); 55 % of control on NEK1 (3 µM); 0 % of control on CDC42BPB (0.3 µM); 0 % of control on CDC42BPB (3 µM). In addition, the residual kinase activity at DYRK3 (0.3 µM) is reported as 59 % of control; on DYRK3 (3 µM), 14 % of control; at VRK1 (0.3 µM), 104 % of control; at VRK1 (3 µM), 61 % of control; at PYK2 (0.3 µM), 73 % of control; on PYK2 (3 µM), 24 % of control. Moreover, the residual kinase activity is reported as 13 % of control on MEK2 (0.3 µM) and 3 % of control at MEK2 (3 µM).

For `COc1ccnc2[nH]cc(-c3cc(N)nc(N)c3)c12` [meriolin 16], the residual kinase activity on AKT3 (0.03 µM) is 108 % of control; on AKT3 (0.3 µM), 82 % of control; at NEK1 (0.03 µM), 86 % of control; on NEK1 (0.3 µM), 67 % of control; at CDC42BPB (0.03 µM), 37 % of control; on CDC42BPB (0.3 µM), 2 % of control. Further, the residual kinase activity on DYRK3 (0.03 µM) was 27 % of control; at DYRK3 (0.3 µM), 2 % of control; at VRK1 (0.03 µM), 114 % of control; at VRK1 (0.3 µM) it was 108 % of control; at PYK2 (0.03 µM), 117 % of control; on PYK2 (0.3 µM), 102 % of control. For the same compound, the residual kinase activity at MEK2 (0.03 µM) is given as 66 % of control; on MEK2 (0.3 µM), 48 % of control.
